Read-outs that look alike come from different tables or passages of the source. One block for each molecule: values may come before it.
Key:
[1] = In vivo monitoring of FD18 and its metabolites in plasma after I.V. FD18; set-up: species or system SD rats; conditions: after FD18 5 mg/kg I.V.; for AUC(0-t) / Cmax / Tmax: Sprague-Dawley, rat, iv
Method: Figure 3 Proposed metabolism pathway of FD18 and its metabolites formed in vivo. (A) metabolism study of FD18 was conducted on human liver microsomes (HLM) and rat liver microsomes (RLM) in vitro. Chemical structure of the 3 metabolites was predicted by LC/QTOF-MS/MS and confirmed by the synthetic compounds (Figure 2E–J). The pathways for biotransformation of FD18 into FM04 was proposed. (B) plasma concentration profile of FD18 and the in vivo formation of metabolites M1, M2 and M3. After I.V. injection of FD18 (5 mg/kg) into […], plasma was collected at 10, 30, 60, 120, 240, 420 and 600 min, respectively. The concentration of FD18 at each time point was determined by UPLC-MS/MS. Its plasma concentration was further quantified with peak area ratio of FD18 against D7-18. […] In vivo formation of metabolites M1, M2 and M3 were monitored and quantified by UPLC-MS/MS with corresponding calibration curve of 14a, FM04 and FM327. Pharmacokinetic parameter AUC was calculated by the pharmacokinetic software-Summit® PK solutions 2.0 (Summit Research Service, Ashland, Wilmington, DE, USA).
FD18 stock solution was freshly prepared in 33% Cremophor EL, 33% ethanol and 33% saline at a concentration of 9.5 mg/mL. FD18 stock solution was then diluted with saline to form a 4 mg/mL working solution for animal injection. SD rats were intravenously (I.V.) administered with FD18 at 5 mg/kg (n = 3). Blood samples (approx. 300 μL) were taken via jugular vein at 10, 30, 60, 120, 240 and 420 min post-administration. Blood samples were centrifuged at 16,100× g for 10 min to obtain plasma. Plasma samples (50 µL) were spiked with 15 μL of internal standard (IS) (D7-NBn, 10 μg/mL). Two hundred microliter of methanol was added for protein precipitation. Samples were centrifuged at 16,100× g for 10 min prior to filtering by 0.22 μm syringe filter for UPLC-MSMS analysis.
The UPLC-MS/MS system consists of an Agilent 1260 infinity UPLC interfaced with a triple quadrupole mass spectrometer (Agilent 6460) equipped with an electrospray ionization source in positive mode. Zorbax Eclipse XDB-C8 (4.6 × 150 mm, 5 µM) was used for separation. The mobile phase for chromatographic separation consisted of methanol + 0.1% formic acid (solvent B) and Milli-Q water + 0.1% formic acid (solvent A) with gradient elution of 30% solvent B to 100% solvent B in 5 min. The elution condition was allowed for equilibrium from the 7th min onward. The analysis time for each injection was 13 min. The flow rate was 0.4 mL/min. The synthetic compound D7-NBn, the deuterated benzyl form of FD18, was used as the internal standard (IS) for the quantification of the three metabolites. Multiple reaction monitoring (MRM) was set to monitor the transitions of D7-NBn [M+H]^+, FD18 [M+H]^+, M1 [M+H]^+, M2 [M+H]^+ and M3 [M+H]^+ at 731.01 > 98.1 m/z, 724.01 > 91.1 m/z, 634.01 > 114 m/z, 416.01 > 91.1 m/z and 327.01 > 239 m/z, respectively. The coefficient of determination (R^2) for 14a, FM04 and FM327 were above 0.99. The dynamic range for the metabolites in the current setting is 78 ng/mL to 2.44 ng/mL.

P-gp [2] = molecular target: T1, P-gp (Homo sapiens, UniProt P08183); test: Reversal of P-gp-mediated MDR in LCC6MDR cells (MTS cell viability, 5 days)
T1 sequence (P08183 whole entry): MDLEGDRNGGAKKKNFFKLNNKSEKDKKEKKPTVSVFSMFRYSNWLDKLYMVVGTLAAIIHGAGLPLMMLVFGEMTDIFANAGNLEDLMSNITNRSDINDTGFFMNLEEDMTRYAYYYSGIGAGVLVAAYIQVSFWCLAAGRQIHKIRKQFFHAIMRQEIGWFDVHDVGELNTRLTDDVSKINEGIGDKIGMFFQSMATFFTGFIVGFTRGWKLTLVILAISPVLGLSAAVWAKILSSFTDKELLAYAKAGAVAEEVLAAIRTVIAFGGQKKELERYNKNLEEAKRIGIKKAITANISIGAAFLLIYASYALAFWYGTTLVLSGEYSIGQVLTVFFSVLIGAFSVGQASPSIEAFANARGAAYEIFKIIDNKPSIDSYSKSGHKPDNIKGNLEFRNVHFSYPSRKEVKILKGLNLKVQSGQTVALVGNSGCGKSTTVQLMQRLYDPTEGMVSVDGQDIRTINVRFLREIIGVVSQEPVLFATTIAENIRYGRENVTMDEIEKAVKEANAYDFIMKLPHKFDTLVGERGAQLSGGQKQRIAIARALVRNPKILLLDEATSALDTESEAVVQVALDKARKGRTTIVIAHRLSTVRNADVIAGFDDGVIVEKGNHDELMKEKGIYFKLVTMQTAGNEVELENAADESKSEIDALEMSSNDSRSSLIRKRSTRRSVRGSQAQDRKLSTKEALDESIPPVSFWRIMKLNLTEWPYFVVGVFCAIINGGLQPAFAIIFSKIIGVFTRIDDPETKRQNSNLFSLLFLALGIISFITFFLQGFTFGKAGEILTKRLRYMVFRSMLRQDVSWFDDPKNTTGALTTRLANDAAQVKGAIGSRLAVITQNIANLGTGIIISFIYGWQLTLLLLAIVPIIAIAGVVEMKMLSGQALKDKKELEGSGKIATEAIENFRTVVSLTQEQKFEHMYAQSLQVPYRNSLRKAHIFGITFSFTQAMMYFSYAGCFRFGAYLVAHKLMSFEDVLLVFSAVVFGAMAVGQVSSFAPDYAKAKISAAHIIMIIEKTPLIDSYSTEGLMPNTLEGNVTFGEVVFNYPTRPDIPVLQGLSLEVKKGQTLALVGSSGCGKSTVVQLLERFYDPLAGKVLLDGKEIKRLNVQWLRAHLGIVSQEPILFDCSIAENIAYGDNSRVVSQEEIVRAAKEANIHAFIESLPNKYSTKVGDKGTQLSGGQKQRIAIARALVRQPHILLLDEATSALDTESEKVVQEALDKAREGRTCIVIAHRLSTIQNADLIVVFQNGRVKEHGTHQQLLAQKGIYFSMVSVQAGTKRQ
Method: To each well of a 96-well plate, 6500 cells of LCC6MDR were seeded in 180 μL supplemented medium. A 10 µL compound (FD18, 14a, FM04 or FM327) at different concentrations (0, 62.5, 125, 250, 500 and 1000 nM) was added to the well. […] The final volume in each well was 200 µL and the 96-well plate was incubated at 37 °C for 5 days. The cell viability was determined using the MTS assay as reported previously. The % of cell survival, IC50 of anticancer drugs towards the LCC6MDR and the EC50 of modulators were analyzed using nonlinear regression in Prism 5.0 (Prism version 5.0, GraphPad software, San Diego, CA, USA).

LCC6 cells = test: IC50 of anticancer drugs in wild-type LCC6 with or without FM04; assay type: cell-based, human; conditions: for IC50: Homo sapiens; for RF, LCC6 + DMSO: IC50 in LCC6MDR without FM04 / IC50 in LCC6; for RF, LCC6 + 1 μM FM04: IC50 in LCC6MDR without FM04 / IC50 in LCC6 with FM04
Source text: Table S1. IC50 of anticancer drugs in LCC6 and LCC6MDR and P-gp modulating activity of FM04.
fold): IC50 of an anticancer drug of LCC6MDR without FM04/IC50 of an anticancer of LCC6 with or without
FM04 or LCC6MDR with FM04. N = 2 - 8 independent experiment. The IC50 values were presented as mean ±
standard error mean. /: not determined.

MRP1 = molecular target: T2, MRP1 (Homo sapiens, UniProt P33527); test: MRP1-modulating activity in 2008/MRP1 cells (MTS); assay type: cell-based; conditions: no modulator; read-out: IC50 of DOX in 2008/MRP1, DMSO
T2 construct: expressed in transfected cells; host or cells: 2008/MRP1 (human ovarian cancer)
T2 sequence (P33527 whole entry): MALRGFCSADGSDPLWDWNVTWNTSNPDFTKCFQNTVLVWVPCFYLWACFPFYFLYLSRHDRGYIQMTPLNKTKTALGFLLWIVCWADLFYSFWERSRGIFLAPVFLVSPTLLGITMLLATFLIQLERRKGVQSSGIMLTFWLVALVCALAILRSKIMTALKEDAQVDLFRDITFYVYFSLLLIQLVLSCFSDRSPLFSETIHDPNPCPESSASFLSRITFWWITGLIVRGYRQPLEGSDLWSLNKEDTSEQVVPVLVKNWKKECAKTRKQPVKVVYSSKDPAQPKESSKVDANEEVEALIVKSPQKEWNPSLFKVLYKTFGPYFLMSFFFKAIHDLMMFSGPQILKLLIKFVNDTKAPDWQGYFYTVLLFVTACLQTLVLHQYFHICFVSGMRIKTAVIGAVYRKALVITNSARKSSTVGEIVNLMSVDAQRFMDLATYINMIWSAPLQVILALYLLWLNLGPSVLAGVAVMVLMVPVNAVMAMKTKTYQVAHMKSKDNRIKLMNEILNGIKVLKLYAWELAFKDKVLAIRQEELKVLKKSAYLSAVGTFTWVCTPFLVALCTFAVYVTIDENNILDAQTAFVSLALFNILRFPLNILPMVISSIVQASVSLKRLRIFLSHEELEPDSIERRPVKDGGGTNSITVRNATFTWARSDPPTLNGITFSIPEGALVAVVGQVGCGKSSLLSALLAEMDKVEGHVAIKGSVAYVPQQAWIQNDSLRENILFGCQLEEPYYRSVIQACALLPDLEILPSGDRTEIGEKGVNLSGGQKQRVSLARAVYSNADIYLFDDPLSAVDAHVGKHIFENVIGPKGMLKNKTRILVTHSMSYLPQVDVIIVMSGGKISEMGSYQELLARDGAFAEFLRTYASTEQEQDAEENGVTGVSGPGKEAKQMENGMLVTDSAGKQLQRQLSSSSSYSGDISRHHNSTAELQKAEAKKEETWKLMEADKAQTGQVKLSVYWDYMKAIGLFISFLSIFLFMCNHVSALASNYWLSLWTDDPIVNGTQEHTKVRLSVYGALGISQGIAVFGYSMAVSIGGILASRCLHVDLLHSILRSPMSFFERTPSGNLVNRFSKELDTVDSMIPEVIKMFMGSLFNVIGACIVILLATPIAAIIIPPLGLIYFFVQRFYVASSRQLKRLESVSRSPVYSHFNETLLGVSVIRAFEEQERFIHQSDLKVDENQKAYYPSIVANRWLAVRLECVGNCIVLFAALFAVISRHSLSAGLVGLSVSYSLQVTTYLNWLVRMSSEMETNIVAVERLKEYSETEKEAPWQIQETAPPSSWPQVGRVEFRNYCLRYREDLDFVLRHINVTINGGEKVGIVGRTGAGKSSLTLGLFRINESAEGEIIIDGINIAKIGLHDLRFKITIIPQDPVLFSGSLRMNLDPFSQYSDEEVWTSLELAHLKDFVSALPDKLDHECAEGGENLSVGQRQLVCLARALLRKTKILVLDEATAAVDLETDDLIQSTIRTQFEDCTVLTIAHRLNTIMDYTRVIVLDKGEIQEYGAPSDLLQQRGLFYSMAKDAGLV
Method: (§1) The final volume in each well of the 96-well plate was 200 μL. The plate was then incubated for 5 days at 37 °C. The cell viability was determined using an MTS assay as reported previously.

P-gp [3] = molecular target: T1, P-gp; test: Intracellular DOX accumulation assay in LCC6MDR cells
P-gp [4] = molecular target: T1, P-gp; set-up: expressed in transfected cells; host or cells: MDA435/LCC6MDR (human melanoma); method as in PMID 22320402; conditions: LCC6MDR; cited from earlier work
L929 = tested on: L929; set-up: method as in earlier work; conditions: mouse fibroblast cell line; read-out: Cytotoxicity IC50, L929; cited from earlier work
BCRP = molecular target: T3, BCRP (Homo sapiens, UniProt Q9UNQ0); test: BCRP-modulating activity in HEK293/R2 cells (MTS); assay type: cell-based; conditions: no modulator; read-out: IC50 of Topotecan in HEK293/R2, DMSO
T3 construct: expressed in transfected cells; host or cells: HEK293/R2
T3 sequence (Q9UNQ0 1-655): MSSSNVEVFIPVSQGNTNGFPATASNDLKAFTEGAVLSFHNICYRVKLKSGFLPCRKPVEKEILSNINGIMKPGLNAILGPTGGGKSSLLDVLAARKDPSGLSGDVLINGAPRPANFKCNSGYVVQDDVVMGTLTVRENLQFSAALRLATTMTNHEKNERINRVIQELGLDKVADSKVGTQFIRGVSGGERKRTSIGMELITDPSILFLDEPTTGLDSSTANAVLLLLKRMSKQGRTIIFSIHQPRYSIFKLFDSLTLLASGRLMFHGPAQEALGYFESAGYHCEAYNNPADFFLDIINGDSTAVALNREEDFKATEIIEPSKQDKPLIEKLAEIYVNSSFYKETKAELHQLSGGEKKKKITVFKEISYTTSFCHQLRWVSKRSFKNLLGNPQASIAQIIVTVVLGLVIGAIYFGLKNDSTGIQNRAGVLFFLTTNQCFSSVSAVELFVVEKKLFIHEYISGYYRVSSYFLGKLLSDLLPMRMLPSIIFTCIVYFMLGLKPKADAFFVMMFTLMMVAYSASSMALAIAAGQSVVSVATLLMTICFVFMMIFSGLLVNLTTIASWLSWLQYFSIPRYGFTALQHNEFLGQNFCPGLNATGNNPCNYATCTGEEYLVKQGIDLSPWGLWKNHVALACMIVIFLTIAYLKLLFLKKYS
Method: as §1

P-gp [5] = molecular target: T1, P-gp; set-up: expressed in transfected cells; host or cells: MDA435/LCC6MDR (human melanoma); conditions: read-out: EC50 for reversing PTX resistance; cited from earlier work
[6] = oral co-administration; cited from earlier work
[7] = LCC-6, wild-type LCC6, no modulator, read-out: IC50 of anticancer drug, LCC6 + DMSO

Compound: COc1cccc2c1C(=O)c1c(O)c3c(c(O)c1C2=O)C[C@@](O)(C(=O)CO)C[C@@H]3O[C@H]1C[C@H](N)[C@H](O)[C@H](C)O1 [DOX, doxorubicin]
RF, LCC6MDR + 1 μM FM04 (P-gp [2]): 25.2 | RF, LCC6MDR + DMSO (P-gp [2]): 1.0 | IC50 (LCC6 cells; [7]): 27 ± 4.6 nM | RF, LCC6 + DMSO (LCC6 cells): 38.6 | IC50 (MRP1): 616 ± 54.2 nM

Compound: COc1cccc2c1C(=O)c1c(O)c3c(c(O)c1C2=O)C[C@@](O)(C(C)=O)C[C@@H]3O[C@H]1C[C@H](N)[C@H](O)[C@H](C)O1 [Daunorubicin, daunorubicin]
RF, LCC6MDR + 1 μM FM04 (P-gp [2]): 6.3 | RF, LCC6MDR + DMSO (P-gp [2]): 1.0 | IC50 (LCC6 cells; LCC-6, read-out: IC50 of anticancer drug, LCC6 + DMSO): 22.1 ± 2.2 nM | RF, LCC6 + DMSO (LCC6 cells): 60.5

Compound: O=C1c2c(O)ccc(O)c2C(=O)c2c(NCCNCCO)ccc(NCCNCCO)c21 [Mitoxantrone, mitoxantrone]
RF, LCC6MDR + 1 μM FM04 (P-gp [2]): 17.3 | RF, LCC6MDR + DMSO (P-gp [2]): 1.0 | IC50 (LCC6 cells; [7]): 37.4 ± 11.7 nM | RF, LCC6 + DMSO (LCC6 cells): 28.1

Compound: O=c1cc(-c2ccc(O)cc2)oc2cc(O)cc(O)c12 [apigenin]
EC50 (P-gp [5]): > 10 µM | RF (relative-fold) (P-gp [2]): 1.0

Compound: O=c1cc(-c2ccc(OCCOCCOCCOCCOc3ccc(-c4cc(=O)c5ccccc5o4)cc3)cc2)oc2ccccc12 [compound 61]
RF (relative-fold) (P-gp [2]): > 28

Compound: CC(C)c1nc(CN(C)C(=O)N[C@H](C(=O)N[C@@H](Cc2ccccc2)C[C@H](O)[C@H](Cc2ccccc2)NC(=O)OCc2cncs2)C(C)C)cs1 [ritonavir]
fold enhancement of the AUC of oral PTX vs a single oral dose of PTX [6]: 2.5 fold

Now from value to molecule, other results behind:

AUC(0-t) [1]: 78.9 ng·h/mL | Cmax [1]: 18 ng/mL | Tmax [1]: 50 min | Normalized AUC (systemic exposure relative to FD18) ([1]; listed as M1): 12%
Compound: O=c1cc(-c2ccc(OCCOCCNCCOCCOc3ccc(-c4cc(=O)c5ccccc5o4)cc3)cc2)oc2ccccc12 [14a, 1,13-Bis[4′-(4H-chromen-4-on-2-yl)phenyl]-1,4,10,13-tetraoxa-7-azatridecane]
fold lower activity than FD18 in reversing PTX resistance (P-gp [2]): 2.1 fold

EC50 (P-gp [3]): 116 nM | AUC(0-t) [1]: 682 ng·h/mL
Compound: O=c1cc(-c2ccc(OCCOCCN(CCOCCOc3ccc(-c4cc(=O)c5ccccc5o4)cc3)Cc3ccccc3)cc2)oc2ccccc12 [FD18]
Transport substrate of P-gp (P-gp [4]): substrate of P-gp | RF (relative-fold) (P-gp [2]): > 68 | EC50 (P-gp [2]; EC50 for P-gp modulation, range over PTX reversal and DOX accumulation in LCC6MDR): 116 to 148 nM | IC50 (L929): 85 ± 5 µM

AUC(0-t) [1]: 49.1 ng·h/mL | Cmax [1]: 21 ng/mL | Tmax [1]: 50 min | Normalized AUC (systemic exposure relative to FD18) ([1]; listed as M3): 7%
Compound: O=c1cc(-c2ccc(OCCOCCO)cc2)oc2ccccc12 [FM327, 2-(4-(2-(2-hydroxyethoxy)ethoxy)phenyl)-4H-chromen-4-one]
EC50 (P-gp [2]; EC50 needed for reversing MDR in LCC6MDR cells: PTX, LCC6MDR, PTX resistance): > 1000 nM

IC50 (BCRP): 225 ± 32 nM
Compound: CC[C@@]1(O)C(=O)OCc2c1cc1n(c2=O)Cc2cc3c(CN(C)C)c(O)ccc3nc2-1 [Topotecan, topotecan]

IC50 (LCC6 cells; [7]): 0.38 ± 0.14 nM
Compound: CC[C@]1(O)C[C@@H]2CN(CCc3c([nH]c4ccccc34)[C@@](C(=O)OC)(c3cc4c(cc3OC)N(C)[C@H]3[C@@](O)(C(=O)OC)[C@H](OC(C)=O)[C@]5(CC)C=CCN6CC[C@]43[C@@H]65)C2)C1 [Vinblastine, vinblastine]
RF, LCC6MDR + 1 μM FM04 (P-gp [2]): 61.3 | RF, LCC6MDR + DMSO (P-gp [2]): 1.0 | RF, LCC6 + DMSO (LCC6 cells): 24.2 | RF, LCC6 + 1 μM FM04 (LCC6 cells): 10.7

IC50 (LCC6 cells; [7]): 0.71 ± 0.32 nM
Compound: CC[C@]1(O)C[C@H]2CN(CCc3c([nH]c4ccccc34)[C@@](C(=O)OC)(c3cc4c(cc3OC)N(C=O)[C@H]3[C@@](O)(C(=O)OC)[C@H](OC(C)=O)[C@]5(CC)C=CCN6CC[C@]43[C@@H]65)C2)C1 [Vincristine, vincristine]
RF, LCC6MDR + 1 μM FM04 (P-gp [2]): 68.0 | RF, LCC6MDR + DMSO (P-gp [2]): 1.0 | RF, LCC6 + DMSO (LCC6 cells): 39.3 | RF, LCC6 + 1 μM FM04 (LCC6 cells): 21.5

Reference: paper PMC9739180, “Discovery of a Flavonoid FM04 as a Potent Inhibitor to Reverse P-Glycoprotein-Mediated Drug Resistance in Xenografts and Improve Oral Bioavailability of Paclitaxel” (International Journal of Molecular Sciences, 2022)
